Measurements reported in the NIST ThermoML archive (doi:10.1021/je901071x).

Columns and labels:
[1] = xn = mol fraction of the nth substance listed; details: 101 kPa, Liquid; for viscosity: Capillary tube (Ostwald / Ubbelohde) method; for mass density: Vibrating tube method
[2] = 101 kPa, Liquid; for viscosity: Capillary tube (Ostwald / Ubbelohde) method; for mass density: Vibrating tube method

CCCOC=O [propyl methanoate] + CC(C)Cc1ccccc1
[1], x1 = 1
Details | mass density [kg/m3] | viscosity [mPa·s]
303.15 K | 893.5 | 0.477
308.15 K | 888.6 | 0.456
313.15 K | 883.8 | 0.431

CCCOC=O [propyl methanoate] + CC(C)c1ccccc1
[1]
Details | mass density, 303.15 K [kg/m3] | mass density, 308.15 K [kg/m3] | mass density, 313.15 K [kg/m3] | viscosity, 303.15 K [mPa·s] | viscosity, 308.15 K [mPa·s] | viscosity, 313.15 K [mPa·s]
x1 = 0.1349 | 856 | 852.1 | 848.2 | 0.652 | 0.617 | 0.58
x1 = 0.2617 | 859.5 | 855.4 | 851.4 | 0.617 | 0.585 | 0.551
x1 = 0.3812 | 863.3 | 859.1 | 855 | 0.585 | 0.557 | 0.526
x1 = 0.487 | 867.1 | 862.7 | 858.5 | 0.559 | 0.533 | 0.504
x1 = 0.5882 | 871 | 866.5 | 862.2 | 0.537 | 0.513 | 0.485
x1 = 0.6817 | 875.1 | 870.4 | 866 | 0.517 | 0.495 | 0.468
x1 = 0.7675 | 879.2 | 874.4 | 869.8 | 0.506 | 0.485 | 0.459
x1 = 0.8499 | 883.5 | 878.6 | 873.9 | 0.494 | 0.474 | 0.448
x1 = 0.9277 | 888.1 | 883 | 878.2 | 0.484 | 0.464 | 0.439
x1 = 1 | 893.5 | 888.6 | 883.8 | 0.477 | 0.456 | 0.431

CCCCc1ccccc1 [butylbenzene] + CCCOC=O
[1], x2 = 0
Details | mass density [kg/m3] | viscosity [mPa·s]
303.15 K | 851.3 | 0.901
308.15 K | 848 | 0.844
313.15 K | 844.6 | 0.787

CCCOC=O [propyl methanoate]
[2]
Details | mass density [kg/m3] | viscosity [mPa·s]
303.15 K | 893.5 | 0.477
308.15 K | 888.6 | 0.456
313.15 K | 883.8 | 0.431

CC(C)c1ccccc1 [isopropylbenzene]
[2]
Details | mass density [kg/m3] | viscosity [mPa·s]
303.15 K | 852.7 | 0.69
308.15 K | 849 | 0.651
313.15 K | 845.4 | 0.611

c1ccccc1 [benzene] + CCCOC=O
[1], x2 = 0
Details | mass density [kg/m3] | viscosity [mPa·s]
303.15 K | 867.6 | 0.569
308.15 K | 863.2 | 0.534
313.15 K | 858.9 | 0.497

CCCOC=O [propyl methanoate] + c1ccccc1
[1]
Details | mass density, 303.15 K [kg/m3] | mass density, 308.15 K [kg/m3] | mass density, 313.15 K [kg/m3] | viscosity, 303.15 K [mPa·s] | viscosity, 308.15 K [mPa·s] | viscosity, 313.15 K [mPa·s]
x1 = 0.0918 | 869.6 | 865.1 | 860.6 | 0.54 | 0.512 | 0.479
x1 = 0.1874 | 871.4 | 866.8 | 862.3 | 0.518 | 0.49 | 0.462
x1 = 0.2822 | 873.6 | 868.9 | 864.3 | 0.504 | 0.476 | 0.448
x1 = 0.3785 | 875.8 | 871.1 | 866.5 | 0.49 | 0.466 | 0.437
x1 = 0.4767 | 878.2 | 873.4 | 868.7 | 0.48 | 0.456 | 0.431
x1 = 0.5772 | 880.6 | 875.8 | 871.1 | 0.474 | 0.449 | 0.425
x1 = 0.6802 | 883.4 | 878.5 | 873.7 | 0.471 | 0.451 | 0.426
x1 = 0.7854 | 886.2 | 881.3 | 876.5 | 0.469 | 0.448 | 0.423
x1 = 0.8924 | 889.4 | 884.4 | 879.5 | 0.467 | 0.446 | 0.421
x1 = 1 | 893.5 | 888.6 | 883.8 | 0.477 | 0.456 | 0.431

CC(C)c1ccccc1 [isopropylbenzene] + CCCOC=O
[1], x2 = 0
Details | mass density [kg/m3] | viscosity [mPa·s]
303.15 K | 852.7 | 0.69
308.15 K | 849 | 0.651
313.15 K | 845.4 | 0.611

CCCOC=O [propyl methanoate] + CCCCc1ccccc1
[1]
Details | mass density, 303.15 K [kg/m3] | mass density, 308.15 K [kg/m3] | mass density, 313.15 K [kg/m3] | viscosity, 303.15 K [mPa·s] | viscosity, 308.15 K [mPa·s] | viscosity, 313.15 K [mPa·s]
x1 = 0.1483 | 854.7 | 851 | 847.3 | 0.823 | 0.772 | 0.723
x1 = 0.2855 | 858.4 | 854.6 | 850.7 | 0.753 | 0.71 | 0.667
x1 = 0.4066 | 862.2 | 858.2 | 854.3 | 0.696 | 0.658 | 0.619
x1 = 0.5164 | 866.2 | 862.1 | 858 | 0.649 | 0.616 | 0.58
x1 = 0.6148 | 870.3 | 866 | 861.8 | 0.609 | 0.579 | 0.546
x1 = 0.7042 | 874.5 | 870.1 | 865.8 | 0.575 | 0.547 | 0.517
x1 = 0.7884 | 879.1 | 874.5 | 869.9 | 0.545 | 0.52 | 0.491
x1 = 0.8642 | 883.8 | 879 | 874.2 | 0.519 | 0.497 | 0.47
x1 = 0.9339 | 888.6 | 883.7 | 878.7 | 0.498 | 0.476 | 0.451
x1 = 1 | 893.5 | 888.6 | 883.8 | 0.477 | 0.456 | 0.431

CC(C)Cc1ccccc1 [(2-methylpropyl)benzene] + CCCOC=O
[1]
Details | mass density, 303.15 K [kg/m3] | mass density, 308.15 K [kg/m3] | mass density, 313.15 K [kg/m3] | viscosity, 303.15 K [mPa·s] | viscosity, 308.15 K [mPa·s] | viscosity, 313.15 K [mPa·s]
x2 = 0 | 844.4 | 841.1 | 837.6 | 0.905 | 0.848 | 0.784
x2 = 0.1508 | 848.8 | 845.2 | 841.4 | 0.813 | 0.771 | 0.718
x2 = 0.287 | 853.3 | 849.5 | 845.6 | 0.743 | 0.706 | 0.661
x2 = 0.4072 | 857.9 | 854 | 850 | 0.687 | 0.654 | 0.614
x2 = 0.519 | 862.9 | 858.7 | 854.5 | 0.64 | 0.61 | 0.575
x2 = 0.6161 | 867.7 | 863.4 | 859.1 | 0.602 | 0.575 | 0.543
x2 = 0.708 | 872.9 | 868.5 | 864 | 0.569 | 0.544 | 0.515
x2 = 0.7895 | 878 | 873.4 | 868.8 | 0.54 | 0.519 | 0.492
x2 = 0.8656 | 883.2 | 878.4 | 873.7 | 0.516 | 0.497 | 0.471
x2 = 0.9341 | 888.3 | 883.4 | 878.6 | 0.495 | 0.476 | 0.451

c1ccccc1 [benzene]
[2]
Details | mass density [kg/m3] | viscosity [mPa·s]
303.15 K | 867.6 | 0.569
308.15 K | 863.2 | 0.534
313.15 K | 858.9 | 0.497

CC(C)Cc1ccccc1 [(2-methylpropyl)benzene]
[2]
Details | mass density [kg/m3] | viscosity [mPa·s]
303.15 K | 844.4 | 0.905
308.15 K | 841.1 | 0.848
313.15 K | 837.6 | 0.784

CCCCc1ccccc1 [butylbenzene]
[2]
Details | mass density [kg/m3] | viscosity [mPa·s]
303.15 K | 851.3 | 0.901
308.15 K | 848 | 0.844
313.15 K | 844.6 | 0.787
